Laboratory results as given in patent publication US20240043442A1, “SELECTIVE ESTROGEN RECEPTOR DEGRADERS AND USES THEREOF” (InventisBio LLC, priority 2016, published 2024).
Read-outs that look alike come from different tables or passages of the source.

What was measured:
ER = ER (Homo sapiens (Human), UniProt P03372); assay: MCF-7 ER degradation assay (high content imaging); assay type: cell-based; settings: MCF-7 cells, 1 nM compound, DMSO control as baseline; for MCF7 ER Degradation at 4 hr (%): 4 hours treatment; for MCF7 ER Degradation at 24 hr (%): 24 hours treatment
Description: The level of ER degradation by SERD described in this patent was analyzed by cell based high content imaging method. […] Then, 1 μL of compound solution (in DMSO) was added to the cells to make a final concentration of 1 nM per each well of treated cells. DMSO at the same final concentration (%) per each well was used to serve as negative control on each plate. After 4 hours or 24 hours of treatment at 37° C. with 5% CO2, the cells were fixed and permeabilized. Media from each well was aspirated and cells were gently washed with 1×PBS for 5 minutes and the wash procedure was repeated 3 times. Cells was then fixed with 4% formaldehyde freshly made in 1×PBS at room temperature for 20 minutes, followed by gentle washing with 1×PBS, 3 times for 5 minute each. The assay plate was incubated with 200 μl of 1×PBS containing 0.2% Triton-X100 for 5 minutes at room temperature, cells were then washed again with 1×PBS 3 times for 5 minutes each. After this, cells were incubated with the blocking buffer (1×PBS with 5% BSA) at room temperature for 1 hour. For immunostaining, blocking buffer was removed and primary anti-ER antibody (ER1D5, Santa Cruz) diluted in blocking buffer (1:400) was added to each well and cells were incubated overnight at 4° C. The next day, cells were washed with 1×PBS for 3 times with 5 minute each. […] Cells were washed with 1×PBS for 3 times with 5 minute each time. Cells were incubated with DAPI (Beyotime; 1 μg/ml) for 10 minutes and washed with 1×PBS for 3 times with 5 minute each time. […] SERD induced ER degradation in the MCF-7 cells were measured using DMSO negative control as the baseline.

[1] = system: breast cancer cell line MCF-7; assay: MCF-7 cell growth study (celltiter-glo luminescent viability assay); assay type: cell-based, human; settings: MCF-7 cells, 6 days incubation, read-out: IC50 (nM), cell growth inhibition;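 also: viability read by luminescence after compound exposure, relative to DMSO vehicle-treated wells on the same plate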
Description: Compound activity was analyzed using celltiter-glo luminescent viability assay (Promega #G7572) in breast cancer cell line MCF-7. Cells grown in log phase are trypsinized and seeded into a 96-well cell culture plate at a density of 2×10^3 per well and incubated overnight at 37° C. with 5% CO2 in humidified culture chamber. The next day, compounds were prepared in 100% DMSO and were serially diluted and added into cells in the following final concentrations: 316, 100, 31.6, 10, 3.16, 1, 0.32, 0.1, 0.03, 0.01, 0.003 and 0.001 nM. As a control, same volume and concentration of DMSO vehicle control solution was added to the control wells in each plate. The cells were incubated with compounds at 37° C. culture chamber for 6 days. Promega's celltiter-glo kit was used to analyze the cell viability, according to manufacture's instruction. Briefly, fifty microliter of celltiter-glo reagent was added to each well, plate (covered with aluminum foil) was gently vibrated for 10 min to induce cell lysis at room temperature. Luminescence was measured using a SPECTRAmax i3 reader.

pooled human hepatocytes = assay: Human hepatocyte clearance study; assay type: in vitro ADME; settings: for Human In vitro Clint (μL/min/10^6 cells) / Human In vitro T1/2 / Human Scale-up Clint: human hepatocytes; for Human Hepatocyte Remaining Percentage @ 120 min (%): human hepatocytes 0.5x10^6 viable cells/mL; for Human Scale-up Clint: scaling factor 2544.3
Description: (§1) The in vitro hepatocyte clearance of compound described here was studied using pooled human hepatocytes purchased from BioreclamationlVT (Westbury, NY, Cat #X008001, Lot #TQJ). Assay was conducted according to manufacture's instruction. Briefly, mM tock solutions of test compound and positive control (Verapamil) were prepared in 100% DMSO. Thawing media (50 mL) used in the study consists of: 31 mL Williams E medium (GIBCO Cat #12551-032); 15 mL isotonic percoll (GE Healthcare Cat #17-0891-09); 500 uL 100×GlutaMax (GIBCO Cat #35050); 750 uL HEPES (GIBCO Cat #15630-080); 2.5 mL FBS (Corning Cat #35-076-CVR); 50 uL human insulin (GIBCO Cat #12585-014) and 5 uL dexamethasone (NICPBP). Incubation media is made of Williams E medium supplemented with 1×GlutaMax. Thawing medium and supplement incubation medium (serum-free) were placed in a 37° C. water bath for at least 15 minutes prior to use. Compound stock solutions were diluted to 100 μM by combining 198 μt of 50% acetonitrile/50% water and 2 μL of 10 mM stock solution. Verapamil was use as positive control in the assay. Vials of cryopreserved hepatocytes were removed from storage and thawed in a 37° C. water bath with gentle shaking. Contents of the vial were poured into the 50 mL thawing medium conical tube. Vials were centrifuged at 100 g for 10 minutes at room temperature. Thawing medium was aspirated and hepatocytes were re-suspended with serum-free incubation medium to yield ˜1.5×10^6 cells/mL. Hepatocyte viability and density were counted using a Trypan Blue exclusion, and then cells were diluted with serum-free incubation medium to a working cell density of 0.5×10^6 viable cells/mL. Then, a portion of the hepatocytes at 0.5×10^6 viable cells/mL was boiled for 5 min prior to adding to the plate as negative control to eliminate the enzymatic activity so that little or no substrate turnover should be observed. The boiled hepatocytes were used to prepare negative samples. Aliquots of 198 μL hepatocytes were dispensed into each well of a 96-well non-coated plate. The plate was placed in the incubator on an orbital shaker at 500 rpm for approximately 10 minutes. Aliquots of 2 μL of the 100 μM test compound or positive control were added into respective wells of the non-coated 96-well plate to start the reaction. This assay was performed in duplicate. The plate was incubated in the incubator on an orbital shaker at 500 rpm for the designed time points. Twenty-five microliter of contents were transferred and mixed with 6 volumes (150 μL) of cold acetonitrile with IS (200 nM imipramine, 200 nM labetalol and 200 nM diclofenac) to terminate the reaction at time points of 0, 15, 30, 60, 90 and 120 minutes. Samples were centrifuged at 3,220 g for 25 minutes and aliquots of 150 μL of the supernatants was used for LC-MS/MS analysis. For data analysis, all calculations were carried out using Microsoft Excel. Peak areas were determined from extracted ion chromatograms. The in vitro half-life (t1/2) of parent compound was determined by regression analysis of the percent parent disappearance vs. time curve. The in vitro half-life (in vitro t1/2) was determined from the slope value: in vitro t1/2=0.693/k. […] Scaling factors for in vivo intrinsic clearance prediction using human hepatocytes are listed as: liver weight (g liver/kg body weight): 25.7; hepatocyte concentration (10^6 cells/g liver): 99; scaling factor: 2544.3.

[2] = Human hepatocyte clearance study; assay type: in vitro ADME; settings: pooled cryopreserved human hepatocytes (suspension); for hepatocyte CLint at 1 µM / half-life at 1 µM: human; for hepatocyte CLint at 1 µM: read-out: Human In vitro Clint (μL/min/10^6 cells); for half-life at 1 µM: read-out: Human In vitro T1/2; for CLint scaled at 1 µM: human hepatocytes, scaling factor 2544.3, read-out: Human Scale-up Clint
Description: as §1

ER, sequence (P03372 whole entry): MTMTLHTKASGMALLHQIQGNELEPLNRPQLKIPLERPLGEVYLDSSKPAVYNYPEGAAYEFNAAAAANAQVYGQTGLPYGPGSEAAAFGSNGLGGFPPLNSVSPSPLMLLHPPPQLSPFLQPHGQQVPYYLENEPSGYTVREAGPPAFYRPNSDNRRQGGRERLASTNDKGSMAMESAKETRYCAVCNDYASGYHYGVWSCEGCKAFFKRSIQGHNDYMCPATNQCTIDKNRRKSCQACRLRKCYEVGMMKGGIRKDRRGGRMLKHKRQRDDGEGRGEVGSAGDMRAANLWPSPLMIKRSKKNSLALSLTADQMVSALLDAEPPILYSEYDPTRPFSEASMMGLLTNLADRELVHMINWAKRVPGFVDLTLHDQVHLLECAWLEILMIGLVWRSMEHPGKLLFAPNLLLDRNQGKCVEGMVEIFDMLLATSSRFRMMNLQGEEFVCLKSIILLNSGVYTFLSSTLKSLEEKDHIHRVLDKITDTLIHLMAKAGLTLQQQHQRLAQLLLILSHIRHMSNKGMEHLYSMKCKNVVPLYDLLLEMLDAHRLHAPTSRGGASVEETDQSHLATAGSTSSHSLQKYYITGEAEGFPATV

| SMILES | IC50 ([1]; Homo sapiens, MCF7, 144 h) [nM] | IC50 [1] [nM] | further results |
| --- | --- | --- | --- |
| CC1Cc2c([nH]c3ccc(F)cc23)C(c2c(F)cc(/C=C/C(=O)O)cc2F)N1CC(C)(C)F (stereo not shown) [Compound 46A] |  |  | MCF7 ER Degradation at 4 hr (%) (ER): 25%; MCF7 ER Degradation at 24 hr (%) (ER): 20% |
| CC1Cc2c([nH]c3ncccc23)C(c2c(F)cc(OCCN3CC(CF)C3)cc2F)N1CC(C)(F)F (stereo not shown) [Compound 19A] | 3.1 |  |  |
| C[C@@H]1Cc2c([nH]c3ccccc23)[C@@H](c2c(F)cc(OCCN3CC(CF)C3)cc2F)N1CC(C)(F)F [Compound 1] |  | 0.3 | Human In vitro Clint (μL/min/10^6 cells) (pooled human hepatocytes): 1.6 μL/min/10^6 cells; Human In vitro T1/2 (pooled human hepatocytes): 14.2 h; Human Hepatocyte Remaining Percentage @ 120 min (%) (pooled human hepatocytes): 88%; Human Scale-up Clint (pooled human hepatocytes): 4.1 mL/min/kg |
| C[C@@H]1Cc2c([nH]c3ccccc23)[C@@H](c2c(F)cc(OCCN3CCCCC3)cc2F)N1CC(C)(F)F [Compound 3] | 0.6 |  |  |
| COc1ccc2[nH]c3c(c2c1)CC(C)N(CC(C)(C)F)C3c1c(F)cc(/C=C/C(=O)O)cc1F (stereo not shown) [Compound 37A] | 2.9 |  |  |
| CC1Cc2c([nH]c3ncccc23)C(c2c(F)cc(/C=C/C(=O)O)cc2F)N1CC(C)(C)F (stereo not shown) [Compound 32A] | 1.9 |  |  |
| C[C@@H]1Cc2c([nH]c3ccccc23)[C@@H](c2c(F)cc(/C=C/C(=O)O)cc2F)N1CC1(F)CC1 [Compound 24] |  | 1.9 |  |
| CC1Cc2c(oc3ccccc23)C(c2c(Cl)cc(/C=C/C(=O)O)cc2Cl)N1CC(C)(C)F (stereo not shown) [Compound 45] | 8.9 |  |  |
| C[C@@H]1Cc2c([nH]c3ccccc23)[C@@H](c2c(F)cc(/C=C/C(=O)O)cc2Cl)N1CC(C)(F)F [Compound 49] | 0.5 |  |  |
| CC1Cc2c([nH]c3ccc(Cl)cc23)C(c2c(F)cc(/C=C/C(=O)O)cc2F)N1CC(C)(C)F (single isomer, unassigned) [Compound 42B] |  | > 100 |  |
| CC1Cc2c([nH]c3cc(O)ccc23)C(c2c(F)cc(/C=C/C(=O)O)cc2F)N1CC(C)(C)F (stereo not shown) [Compound 36] | 16 |  |  |
| CC1Cc2c([nH]c3ccc(F)cc23)C(c2c(F)cc(/C=C/C(=O)O)cc2F)N1CC(C)(F)F (stereo not shown) [Compound 33A] | 1.2 |  |  |
| COc1ccc2c3c([nH]c2c1)C(c1c(F)cc(/C=C/C(=O)O)cc1F)N(CC(C)(C)F)C(C)C3 (stereo not shown) [Compound 22A] |  | 2.6 |  |
| CC1Cc2c([nH]c3ccc(F)cc23)C(c2c(Cl)cc(/C=C/C(=O)O)cc2Cl)N1CC(C)(C)F (stereo not shown) [Compound 27B] | 0.7 |  |  |
| CC1Cc2c([nH]c3cc(F)ccc23)C(c2c(F)cc(/C=C/C(=O)O)cc2F)N1CC(C)(C)F (stereo not shown) [Compound 34A] |  |  | MCF7 ER Degradation at 4 hr (%) (ER): 21%; MCF7 ER Degradation at 24 hr (%) (ER): 20% |
| CC1Cc2c([nH]c3ccc(F)cc23)C(c2c(Cl)cc(/C=C/C(=O)O)cc2Cl)N1CC(C)(F)F (stereo not shown) [Compound 28] |  | 1.3 |  |
| CC1Cc2c(oc3ccccc23)C(c2c(Cl)cc(OCCN3CC(CF)C3)cc2Cl)N1CC(C)(C)F (stereo not shown) [Compound 18] | 8.9 |  |  |
| COc1ccc2c3c([nH]c2c1)C(c1c(F)cc(OCCN2CC(CF)C2)cc1F)N(CC(C)(C)F)C(C)C3 (stereo not shown) [Compound 15A] | 1.8 |  |  |
| CC1Cc2c([nH]c3cc(F)ccc23)C(c2c(F)cc(/C=C/C(=O)O)cc2F)N1CC(C)(F)F (stereo not shown) [Compound 35A] | 2.5 |  |  |
| C[C@@H]1Cc2c([nH]c3ccccc23)[C@@H](c2c(F)cc(/C=C/C(=O)O)cc2F)N1CC(C)(F)F [Compound 29] | 0.9 |  | hepatocyte CLint at 1 µM [2]: 2.4 µL/min/1e6 cells; half-life at 1 µM [2]: 9.52 h; CLint scaled at 1 µM [2]: 6.2 mL/min/kg; Human Hepatocyte Remaining Percentage @ 120 min (%) (pooled human hepatocytes): 83% |
| CC(C)CN1C(C)Cc2c([nH]c3ccc(F)cc23)C1c1c(F)cc(/C=C/C(=O)O)cc1F (stereo not shown) [Compound 39A] | 2.6 |  |  |

| SMILES | IC50 ([1]; Homo sapiens, MCF7, 144 h) [nM] | IC50 [1] [nM] | further results |
| --- | --- | --- | --- |
| CC1Cc2c([nH]c3cc(Cl)ccc23)C(c2c(F)cc(/C=C/C(=O)O)cc2F)N1CC(C)(C)F (stereo not shown) [Compound 43B] | 0.8 |  |  |
| C[C@@H]1Cc2c([nH]c3ccccc23)[C@@H](c2c(F)cc(/C=C/C(=O)O)cc2F)N1CC1(C)CC1 [Compound 30] | 1 |  |  |
| CCC1Cc2c([nH]c3ccccc23)C(c2c(F)cc(/C=C/C(=O)O)cc2F)N1CC(C)(C)F (single isomer, unassigned) [Compound 40B] |  | > 100 |  |
| CC1Cc2c([nH]c3ccc(Cl)cc23)C(c2c(F)cc(/C=C/C(=O)O)cc2F)N1CC(C)(C)F (single isomer, unassigned) [Compound 42A] |  | 1.9 |  |
| C[C@@H]1Cc2c([nH]c3ccccc23)[C@@H](c2c(F)cc(OCCN3CCCCCC3)cc2F)N1CC(C)(C)F [Compound 8] | 1 |  |  |
| C[C@@H]1Cc2c([nH]c3ccccc23)[C@@H](c2c(F)cc(/C=C/C(=O)O)cc2Cl)N1CC(C)(C)F [Compound 20] |  | 0.3 | MCF7 ER Degradation at 4 hr (%) (ER): 25%; MCF7 ER Degradation at 24 hr (%) (ER): 21%; Human In vitro Clint (μL/min/10^6 cells) (pooled human hepatocytes): 5.6 μL/min/10^6 cells; Human In vitro T1/2 (pooled human hepatocytes): 4.1 h; Human Hepatocyte Remaining Percentage @ 120 min (%) (pooled human hepatocytes): 70%; Human Scale-up Clint (pooled human hepatocytes): 14 mL/min/kg |
| CCC1Cc2c([nH]c3ccccc23)C(c2c(F)cc(/C=C/C(=O)O)cc2F)N1CC(C)(C)F (single isomer, unassigned) [Compound 40A] |  | 0.9 |  |
| CC(C)(F)CN1C(c2c(F)cc(/C=C/C(=O)O)cc2F)c2[nH]c3ccccc3c2CC1C(F)(F)F (stereo not shown) [Compound 31A] | 0.4 |  |  |
| CC1Cc2c([nH]c3ccc(F)cc23)C(c2c(Cl)cc(OCCN3CC(CF)C3)cc2Cl)N1CC(C)(C)F (stereo not shown) [Compound 14B] | 2.6 |  |  |
| CC1Cc2c(sc3ccccc23)C(c2c(F)cc(/C=C/C(=O)O)cc2F)N1CC(C)(C)F (stereo not shown) [Compound 48A] | 4.7 |  |  |
| C[C@@H]1Cc2c([nH]c3ccccc23)[C@@H](c2c(F)cc(OCCN3CC(CF)C3)cc2Cl)N1CC(C)(C)F [Compound 11] | 0.4 |  | hepatocyte CLint at 1 µM [2]: 2 µL/min/1e6 cells; half-life at 1 µM [2]: 11.1 h; CLint scaled at 1 µM [2]: 5.3 mL/min/kg; Human Hepatocyte Remaining Percentage @ 120 min (%) (pooled human hepatocytes): 83% |
| C[C@@H]1Cc2c([nH]c3ccccc23)[C@@H](c2c(Cl)cc(OCCN3CC(CF)C3)cc2Cl)N1CC(C)(C)F [Compound 9] | 3.1 |  |  |
| C[C@@H]1Cc2c([nH]c3ccccc23)[C@@H](c2c(Cl)cc(OCCN3CC(CF)C3)cc2Cl)N1CC(C)(F)F [Compound 10] | 3.2 |  |  |
| C[C@@H]1Cc2c([nH]c3ccccc23)[C@@H](c2c(F)cc(OCCN3CCCC3)cc2F)N1CC(C)(F)F [Compound 2] | 0.9 |  |  |
| CC1Cc2c([nH]c3ccc(F)cc23)C(c2c(F)cc(OCCN3CC(CF)C3)cc2F)N1CC(C)(C)F (stereo not shown) [Compound 13A] |  | 0.5 |  |
| CC1Cc2c([nH]c3ccc(O)cc23)C(c2c(F)cc(/C=C/C(=O)O)cc2F)N1CC(C)(C)F (stereo not shown) [Compound 23] |  | 4.2 |  |
| CC(C)(F)CN1C(c2c(F)cc(OCCN3CC(CF)C3)cc2F)c2[nH]c3ccccc3c2CC1C(F)(F)F (stereo not shown) [Compound 16A] |  | 0.6 |  |
| CC1Cc2c(oc3ccccc23)C(c2c(F)cc(/C=C/C(=O)O)cc2F)N1CC(C)(F)F (stereo not shown) [Compound 44A] | 7.9 |  |  |
| CC1Cc2c(oc3ccccc23)C(c2c(F)cc(OCCN3CC(CF)C3)cc2F)N1CC(C)(C)F (stereo not shown) [Compound 17A] |  | 0.8 |  |
| C[C@@H]1Cc2c([nH]c3ccccc23)[C@@H](c2c(F)cc(OCCN3CCCCCC3)cc2F)N1CC(C)(F)F [Compound 4] | 0.9 |  |  |
